Patent publication US8754104B2, “Crystalline salts of quinoline compounds and methods for preparing them” (Active Biotech AB, priority 2004, dated 2014)
Where a name gives a salt, the structure may show the parent alone. Read-outs that look alike come from different tables or passages of the source.

Tests used:
[1] = Solubility in water at room temperature; format: physicochemical; settings: for solubility: water
[2] = Investigation of the degradation rate (reactivity index) in solution; format: physicochemical; settings: 1-% 0.01M hydrochloric acid in n-propanol, 45 to 60° C., HPLC; relative to Roquinimex defined to 1.0; index 2.0 = 26% per hour
Experimental: The degradation rate, hereinafter called the reactivity index, of compound of formula (I) was determined in solution. Roquinimex (Merck Index 12th Ed., No. 8418; Linomide®, LS2616, N-methyl-N-phenyl-1,2-dihydro-4-hydroxy-1-methyl-2-oxo-3-quinolinecarboxamide) was selected as a reference compound with the reactivity index defined to 1.0. A medium of 1-% 0.01M hydrochloric acid in n-propanol was selected. The reaction temperature was in the range of 45 to 60° C. The 3-quinolinecarboxamide derivative of formula (I) was added to the n-propanol solution. The reaction transfers the compound to an n-propylester. The reaction was stopped after 0, 2 and 4 hours, and analysis was carried out by means of HPLC with UV detection. The disappearance of the 3-quinolinecarboxamide derivative was used for evaluation of the reactivity index, but as an alternative also the formation of the n-propylester may be used. A reactivity index of […] at 60° C., a reactivity index of 2.0 corresponds to a degradation rate of 26% per hour etc.

[3] = format: physicochemical; settings: for Degradation (percentage increase of related substances): 6 months
Experimental: Upon storage without any special precautions being taken, some 3-quinolinecarboxamide derivatives of formula (I) are degraded at an unacceptable rate. At storage during accelerated conditions, that is 40° C. and a relative humidity of 75%, the degradation of some 3-quinoline-carboxamide derivatives can exceed 2% in a period of 6 months (Table 1).
This is evident from a comparison of N-ethyl-N-phenyl-5-chloro-1,2-dihydro-4-hydroxy-1-methyl-2-oxo-3-quinolinecarboxamide (hereinafter called compound A) with the sodium salt of N-ethyl-N-phenyl-5-chloro-1,2-dihydro-4-hydroxy-1-methyl-2-oxo-3-quinolinecarboxamide (hereinafter called compound A sodium). While at 40° C. and a relative humidity of 75% less than 0.01% of compound A sodium in solid state is converted to degradation products in a period of 24 months, 0.31% of compound A is degraded during a 6-month period. Another example of a 3-quinolinecarboxamide derivative susceptible to degradation is N-ethyl-N-phenyl-5-ethyl-1,2-dihydro-4-hydroxy-1-methyl-2-oxo-3-quinolinecarboxamide (hereinafter called compound B), see Table 1.

[4] = Compatibility study, binary mixtures (1:1) of excipient and test substance; format: physicochemical
From the text: Generally, any tendency of instability is exacerbated when a compound of formula (II) is formulated with various excipients. It is clear that the salt form is preferred as drug substance in any binary mixtures of said compound.

[5] = 1:1 mixture with Colloidal silica (Aerosil 200), +40° C./75% RH, 6 months
[6] = 1:1 mixture with Maize Starch, +40° C./75% RH, 6 months
[7] = 1:1 mixture with Mannitol (Pearlitol 200SD), +40° C./75% RH, 6 months
[8] = 1:1 mixture with Microcrystalline Cellulose (Avicel PH-, +40° C./75% RH, 6 months)

Structure (SMILES): CCc1cccc2c1c(O)c(C(=O)N(CC)c1ccccc1)c(=O)n2C.[Ca] [Example 6A, Crystalline N-Ethyl-N-phenyl-5-ethyl-1,2-dihydro-4-hydroxy-2-methyl-2-oxo-3-quinolinecarboxainide calcium salt]
- Solubility in water ([1]; room temperature): 300 µg/mL

Structure (SMILES): CCc1cccc2c1c(O)c(C(=O)N(CC)c1ccccc1)c(=O)n2C [Example 7, N-Ethyl-N-phenyl-5-ethyl-1,2-dihydro-4-hydroxy-1-methyl-2-oxo-3-quinolinecarboxamide zinc salt]
- solubility ([1]; room temperature): 300 µg/mL

Structure (SMILES): CCN(C(=O)c1c(O)c2c(SC)cccc2n(C)c1=O)c1ccccc1 [Compound F, N-ethyl-N-phenyl-5-methylthio-1,2-dihydro-4-hydroxy-1-methyl-2-oxo-3-quinolinecarboxamide]
- Reactivity index [2]: >10

Structure (SMILES): CCN(C(=O)c1c(O)c2c(Cl)cccc2n(C)c1=O)c1ccccc1.[Na] [Compound A sodium, N-Ethyl-N-phenyl-5-chloro-1,2-dihydro-4-hydroxy-1-methyl-2-oxo-3-quinolinecarboxamide sodium salt]
- “Shelf-life” (storage time without degradation exceeding 0.5%) [3]: >6 months
- Degradation (percentage increase of related substances) [3]: <0.01%^3
- Converted to degradation products ([3]; 24 months): less than 0.01%
- Degradation (percentage increase of related substances) [4, 5]: 1.5%
- Degradation (percentage increase of related substances) [4, 6]: 0.05%
- Degradation (percentage increase of related substances) [4, 7]: 0.05%
- Degradation (percentage increase of related substances) [4, 8]: 0.31%
- solubility ([1]; room temperature): 138000 µg/mL

Structure (SMILES): CCN(C(=O)c1c(O)c2c(Cl)cccc2n(C)c1=O)c1ccccc1 [Compound A, N-ethyl-N-phenyl-5-chloro-1,2-dihydro-4-hydroxy-1-methyl-2-oxo-3-quinolinecarboxamide]
- “Shelf-life” (storage time without degradation exceeding 0.5%) [3]: >6 months
- Degradation (percentage increase of related substances) [3]: 0.31%
- Degradation (percentage increase of related substances) [4, 5]: 20%
- Degradation (percentage increase of related substances) [4, 6]: 0.41%
- Degradation (percentage increase of related substances) [4, 7]: 0.45%
- Degradation (percentage increase of related substances) [4, 8]: 1.1%
- Reactivity index [2]: 3.1

Structure (SMILES): CN(C(=O)c1c(O)c2c(Cl)cccc2n(C)c1=O)c1ccc(F)cc1F [Compound C, N-methyl-N-(2,4-difluorophenyl)-5-chloro-1,2-dihydro-4-hydroxy-1-methyl-2-oxo-3-quinolinecarboxamide]
- Reactivity index [2]: 2.6

Structure (SMILES): Cc1cccc2c1c(O)c(C(=O)N(C)c1ccc(C(F)(F)F)cc1)c(=O)n2C [Compound D, N-methyl-N-(4-trifluorophenyl)-1,2-dihydro-1,5-dimethyl-4-hydroxy-1-methyl-2-oxo-3-quinolinecarboxamide]
- Reactivity index [2]: >10

Structure (SMILES): CCN(C(=O)c1c(O)c2c(Cl)cccc2n(C)c1=O)c1ccccc1 [Example 3, N-Ethyl-N-phenyl-5-chloro-1,2-dihydro-4-hydroxy-1-methyl-2-oxo-3-quinolinecarboxamide calcium salt]
- Solubility in water (in words) [1]: sparingly soluble in water
- solubility ([1]; room temperature): ~1000 µg/mL

Structure (SMILES): CN(C(=O)c1c(O)c2ccccc2n(C)c1=O)c1ccccc1 [Roquinimex, N-methyl-N-phenyl-1,2-dihydro-4-hydroxy-1-methyl-2-oxo-3-quinolinecarboxamide, reference compound]
- Reactivity index [2]: 1.0

Structure (SMILES): CCc1cccc2c1c(O)c(C(=O)N(CC)c1ccccc1)c(=O)n2C.[Li] [Example 5, N-Ethyl-N-phenyl-5-ethyl-1,2-dihydro-4-hydroxy-1-methyl-2-oxo-3-quinolinecarboxamide lithium salt]
- solubility ([1]; room temperature): 18000 µg/mL

Structure (SMILES): CCN(C(=O)c1c(O)c2c3c(ccc2n(C)c1=O)OCO3)c1ccccc1 [Compound E, N-ethyl-N-phenyl-5,6-methylenedioxy-1,2-dihydro-4-hydroxy-1-methyl-2-oxo-3-quinolinecarboxamide]
- Reactivity index [2]: 2.9

Structure (SMILES): CCc1cccc2c1c(O)c(C(=O)N(CC)c1ccccc1)c(=O)n2C [Compound B, N-ethyl-N-phenyl-5-ethyl-1,2-dihydro-4-hydroxy-1-methyl-2-oxo-3-quinolinecarboxamide]
- “Shelf-life” (storage time without degradation exceeding 0.5%) [3]: <1 months
- Degradation (percentage increase of related substances) [3]: 2.0%
- Reactivity index [2]: 4.6
